Common to all, as to experiment: IRES screening, Gaussia luciferase from LNP-oRNA (Table 27)
What all share (conditions): Gaussia luciferase luminescence in supernatant 48 hours after LNP-oRNA transfection, normalized to control (caprine kobuvirus IRES)

Assay [1] relates to primary human skeletal myotubes.
Assay [2] deals with primary human hepatocytes.
Assay [3] deals with activated primary human T cells.

`CCCCCCCCCN(CCn1ccnc1C)C(CCCCCCCCC(=O)OCC(CCCC)CCCCCC)CCCCCCCCC(=O)OCC(CCCC)CCCCCC` (stereo not drawn) [Lipid 10a-145]: the “[Mod] Fold Change Myo” value in assay [1] was 0.03927 Fold Change. For the same compound, the “[Mod] PHH Fold Change” value in assay [2] was 0.6359 Fold Change. For the same compound, in assay [3], the “[Mod] T Fold Change” value is reported as 0.0263 Fold Change.
For `CC(C)=CCC/C(C)=C/C(=O)OCCCCCCC(CCCCCCOC(=O)/C=C(\C)CCC=C(C)C)OC(=O)CCCn1ccnc1C` (stereo not drawn) [Lipid 10a-121] the same measures were 0.6276 Fold Change, 0.9977 Fold Change and 1.029 Fold Change.
In the same order, the values of `CC(C)CCCC(C)CC(=O)OCCCCCCC(CCCCCCOC(=O)CC(C)CCCC(C)C)OC(=O)CCCn1ccnc1` (stereo not drawn) [Lipid 10a-116] are 0.03921 Fold Change, 0.5299 Fold Change and 0.03074 Fold Change.
In the same order, the values of `CCCCCCCCC(CCCCCC)C(=O)OCCCCCCN(CCCCCCOC(=O)C(CCCCCC)CCCCCCCC)CCn1ccnc1C` (stereo not drawn) [Lipid 10a-139] are 0.0597 Fold Change, 0.5206 Fold Change and 0.09732 Fold Change.
With `CC(C)CCCC(C)CC(=O)OCCCCCCN(CCCCCCOC(=O)CC(C)CCCC(C)C)CCCn1ccnc1` (stereo not drawn) [Lipid 10a-122], the “[Mod] Fold Change Myo” value in assay [1] amounted to 0.3886 Fold Change. For the same compound, the “[Mod] PHH Fold Change” value in assay [2] is listed as 0.8322 Fold Change. Besides, in assay [3], the “[Mod] T Fold Change” value came out at 0.8876 Fold Change.
For `Cc1nccn1CCCN(CCCCCCOC(=O)CC(C)CCCC(C)C)CCCCCCOC(=O)CC(C)CCCC(C)C` (stereo not drawn) [Lipid 10a-123] the same measures were 0.03971 Fold Change, 0.638 Fold Change and 0.03011 Fold Change.
For `CC(CCOC(=O)CCCCCCCCN(CCCCCCCCC(=O)OCCC(C)CC(C)(C)C)CCCn1ccnc1)CC(C)(C)C` (stereo not drawn) [Lipid 10a-104] the same measures were 0.07607 Fold Change, 0.7745 Fold Change and 0.1688 Fold Change.
For `CCCCC(CC)CCC(=O)OCCCCCCC(CCCCCCOC(=O)CCC(CC)CCCC)OC(=O)CCCn1ccnc1C` (stereo not drawn) [Lipid 10a-111] the same measures were 0.2223 Fold Change, 0.787 Fold Change and 0.4651 Fold Change.
In the case of `CCCCCCCCCCCCC(O)CN(CCCCCCCC(=O)OC(CCCCCCCC)CCCCCCCC)CCCn1ccnc1C` (stereo not drawn) [Lipid 10a-150], the “[Mod] Fold Change Myo” value in assay [1] came out at 0.03864 Fold Change. In assay [2], the “[Mod] PHH Fold Change” value is 0.5147 Fold Change. Also, the “[Mod] T Fold Change” value in assay [3] came out at 0.02705 Fold Change.
For `Cc1nccn1CCCC(=O)OC(CCCCCCCC(=O)OCC(CCC(C)C)C(C)C)CCCCCCCC(=O)OCC(CCC(C)C)C(C)C` (stereo not drawn) [Lipid 10a-98] the same measures were 0.2906 Fold Change, 0.788 Fold Change and 0.677 Fold Change.
For `CCCCCCCCCN(CCn1ccnc1)C(CCCCCCCCC(=O)OCC(CCCC)CCCCCC)CCCCCCCCC(=O)OCC(CCCC)CCCCCC` (stereo not drawn) [Lipid 10a-146] the same measures were 0.04323 Fold Change, 0.5873 Fold Change and 0.03465 Fold Change.
Turning to `CCCCC/C=C\C/C=C\CCCCCCCC(=O)OCC(COC(=O)CCC(OCCCCCCCC)OCCCCCCCC)COC(=O)OCCCn1ccnc1C` (stereo not drawn) [Lipid 10a-141], in assay [1], the “[Mod] Fold Change Myo” value turned out to be 0.04025 Fold Change. Besides, the “[Mod] PHH Fold Change” value in assay [2] is 0.547 Fold Change. Also, the “[Mod] T Fold Change” value in assay [3] amounted to 0.03106 Fold Change.
In the same order, the values of `CC(C)=CCC/C(C)=C/C(=O)OCCCCCCC(CCCCCCOC(=O)/C=C(\C)CCC=C(C)C)OC(=O)CCCn1ccnc1` (stereo not drawn) [Lipid 10a-120] are 0.2755 Fold Change, 0.4893 Fold Change and 0.7019 Fold Change.

The values are drawn from US12297285B2 (Orna Therapeutics, Inc., priority 2022, dated 2025).
